Key:
[1] = system: SK-BR-3; assay: Antiproliferative activity against human SK-BR-3 cells assessed as inhibition of cell growth incubated for 48 hrs by MTT assay; type: functional, cell-based; conditions: SK-BR-3, 48 h
[2] = Selectivity index, ratio of IC50 for antiproliferative activity against HEK293T cells to IC50 for antiproliferative activity against human HepG2 cells; type: toxicity, cell-based; conditions: HEK293T cells versus HepG2 cells, read-out: Ratio IC50
[3] = system: HepG2; assay: Potency index, ratio of vincristine IC50 to test compound IC50 for antiproliferative activity against human HepG2 cells assessed as inhibition of cell growth incubated for 48 hrs by MTT assay; type: functional
[4] = system: SK-OV-3; assay: Antiproliferative activity against human SK-OV-3 cells assessed as inhibition of cell growth incubated for 48 hrs by MTT assay; type: functional, cell-based; conditions: SK-OV-3, 48 h
[5] = system: 786-0; assay: Antiproliferative activity against human 786-0 cells assessed as inhibition of cell growth incubated for 48 hrs by MTT assay; type: functional, cell-based; conditions: 786-0, 48 h
[6] = system: HepG2; assay: Antiproliferative activity against human HepG2 cells assessed as inhibition of cell growth incubated for 48 hrs by MTT assay; type: functional, cell-based; conditions: HepG2, 48 h
[7] = system: Calu-1; assay: Antiproliferative activity against human Calu-1 cells assessed as inhibition of cell growth incubated for 48 hrs by MTT assay; type: functional, cell-based; conditions: Calu-1, 48 h
[8] = system: HEK-293T; assay: Antiproliferative activity against HEK293T cells assessed as inhibition of cell growth incubated for 48 hrs by MTT assay; type: functional, cell-based; conditions: Homo sapiens
[9] = system: RPMI-7951; assay: Antiproliferative activity against human RPMI-7951 cells assessed as inhibition of cell growth incubated for 24 hrs by MTT assay; type: functional, cell-based; conditions: RPMI-7951, 24 h
[10] = system: U-87 MG; assay: Antiproliferative activity against human U-87 MG cells assessed as inhibition of cell growth incubated for 72 hrs by MTT assay; type: functional, cell-based, U-87MG ATCC
[11] = system: NCI-H460; assay: Antiproliferative activity against human NCI-H460 cells assessed as inhibition of cell growth incubated for 72 hrs by MTT assay; type: functional, cell-based; conditions: NCI-H460, 72 h
[12] = system: MDA-MB-231; assay: Antiproliferative activity against human MDA-MB-231 cells assessed as inhibition of cell growth incubated for 72 hrs by MTT assay; type: functional, cell-based; conditions: MDA-MB-231, 72 h
[13] = system: HT-29; assay: Antiproliferative activity against human HT-29 cells assessed as inhibition of cell growth incubated for 72 hrs by MTT assay; type: functional, cell-based; conditions: HT-29, 72 h
[14] = system: HL-60; assay: Antiproliferative activity against human HL-60 cells assessed as inhibition of cell growth incubated for 72 hrs by MTT assay; type: functional, cell-based; conditions: HL-60, 72 h
[15] = Cytotoxicity against human WI-38 cells assessed as inhibition of cell growth incubated for 72 hrs by MTT assay; type: toxicity, cell-based
[16] = system: A549; assay: Antiproliferative activity against human A549 cells assessed as inhibition of cell growth incubated for 72 hrs by MTT assay; type: functional, cell-based; conditions: A549, 72 h
[17] = system: HepG2; assay: Antiproliferative activity against human HepG2 cells assessed as inhibition of cell growth by MTT assay; type: functional, cell-based
[18] = system: HeLa; assay: Antiproliferative activity against human HeLa cells assessed as inhibition of cell growth incubated for 72 hrs by MTT assay; type: functional, cell-based
[19] = system: SK-MEL3; assay: Antiproliferative activity against human SK-MEL3 cells assessed as inhibition of cell growth incubated for 24 hrs by MTT assay; type: functional, cell-based; conditions: SK-MEL3, 24 h
[20] = system: U-87 MG; assay: Antiproliferative activity against human U87 cells assessed as inhibition of cell growth incubated for 72 hrs by MTT assay; type: functional, cell-based, U-87MG ATCC
[21] = system: U-87 MG; assay: Antiproliferative activity against human U87 cells assessed as inhibition of cell growth incubated for 24 hrs by MTT assay; type: functional, cell-based, U-87MG ATCC

C[C@H]1[C@H](N2CCN(P(=O)(OCc3cncs3)N(CCCCl)CCCCl)CC2)O[C@@H]2O[C@@]3(C)CC[C@H]4[C@H](C)CC[C@@H]1[C@@]24OO3 (some centres undefined)
IC50 [1]: 12500 nM | selectivity ratio [2]: 16 | Ratio IC50 [3]: 7.4 | IC50 [4]: 12500 nM | IC50 [5]: 12500 nM | IC50 [6]: 12500 nM | IC50 [7]: 12500 nM | IC50 [8]: 12500 nM

C[C@H]1[C@H](OC(=O)CCC(=O)OCc2ccc(OC(=O)CCC(=O)O[C@@H]3O[C@@H]4O[C@@]5(C)CC[C@H]6[C@H](C)CC[C@@H]([C@H]3C)[C@@]46OO5)cc2)O[C@@H]2O[C@@]3(C)CC[C@H]4[C@H](C)CC[C@@H]1[C@@]24OO3
IC50 [9]: 50 nM

C[C@@H]1CC[C@H]2[C@@H](C)C(OCCNC(=O)c3ccc(COc4ccc(/C=C/S(=O)(=O)Nc5ccc(OC(F)(F)F)cc5)cc4)cc3)O[C@@H]3O[C@@]4(C)CC[C@@H]1[C@]32OO4 (some centres undefined)
IC50 [10]: 90 nM | IC50 [11]: 90 nM | IC50 [12]: 90 nM | IC50 [13]: 90 nM | IC50 [14]: 90 nM | IC50 at 72 h [15]: 90 nM | IC50 [16]: 90 nM

C[C@@H]1CC[C@H]2[C@@H](C)C(=O)O[C@@H]3O[C@@]4(C)CC[C@@H]1[C@]32OO4 [ARTEMISININ]
IC50 [17]: 97000 nM

CCCCCCCCCCCCOC(=O)C[C@H]1O[C@@H]2O[C@@]3(C)CC[C@H]4[C@H](C)CC[C@@H]([C@H]1C)[C@@]24OO3
IC50 [17]: 720 nM

C[C@@H]1CC[C@H]2[C@@H](C)C(OCCOc3ccc(/C=C/S(=O)(=O)Nc4ccc(OC(F)(F)F)cc4)cc3)O[C@@H]3O[C@@]4(C)CC[C@@H]1[C@]32OO4 (some centres undefined)
IC50 [10]: 50 nM | IC50 [11]: 50 nM | IC50 [12]: 50 nM | IC50 [13]: 50 nM | IC50 [14]: 50 nM | IC50 at 72 h [15]: 50 nM | IC50 [16]: 50 nM

COc1ccc(OC)c(/C=C/C(=O)c2ccc(OCC(=O)N[C@H]3O[C@@H]4O[C@@]5(C)CC[C@H]6[C@H](C)CC[C@@H]([C@H]3C)[C@@]46OO5)cc2)c1
IC50 [11]: 120 nM | IC50 [12]: 120 nM | IC50 [13]: 120 nM | IC50 [18]: 120 nM

CCCCCCCCCCCCC(=O)C[C@H]1O[C@@H]2O[C@@]3(C)CC[C@H]4[C@H](C)CC[C@@H]([C@H]1C)[C@@]24OO3
IC50 [17]: 1400 nM

COc1cc(/C=C\C(=O)CC(=O)/C=C\c2ccc(OC(=O)O[C@@H]3O[C@@H]4O[C@@]5(C)CC[C@H]6[C@H](C)CC[C@@H]([C@H]3C)[C@@]46OO5)c(OC)c2)ccc1OC(=O)CCC(=O)O[C@@H]1O[C@@H]2O[C@@]3(C)CC[C@H]4[C@H](C)CC[C@@H]([C@H]1C)[C@@]24OO3
IC50 [19]: 3000 nM

C[C@H]1[C@@H](OCCCN=C=S)O[C@@H]2O[C@@]3(C)CC[C@H]4[C@H](C)CC[C@@H]1[C@@]24OO3
IC50 [20]: 7350 nM | IC50 [21]: 7410 nM

CCCCCCCCCCCCNC(=O)C[C@H]1O[C@@H]2O[C@@]3(C)CC[C@H]4[C@H](C)CC[C@@H]([C@H]1C)[C@@]24OO3
IC50 [17]: 1200 nM

— ChEMBL document CHEMBL5352476, “A comprehensive overview of Artemisinin and its derivatives as anticancer agents” (Eur J Med Chem, 2023)
